# pEC50, pKd, pKi: −log10 of the molar value.
# Experiments:
# P2Y15 [1] = molecular target: T1, P2Y15 (Homo sapiens, UniProt Q96P68); experiment: Calcium mobilization assay in presence of adenosine receptor antagonists; type: cell-based; parameters: expressed in transfected cells; conditions: for block of calcium mobilization induced by AMP and adenosine: FIG. 4, dose-dependent
# Experimental: (§1) Ligand screening was performed in a Ca^2+ flux assay as follows. Stably transfected P2Y15 GPCR-expressing cells were seeded into 96-well plates and incubated overnight at 37° C. in a tissue culture incubator. The culture medium was aspirated and replaced with […] of loading buffer containing 0.1% BSA, 20 mM HEPES, 1 mM probenecid, 0.01% pluronic F127, and 1 µM Fluo-3-AM (Molecular Probes, Eugene, Oreg.) in HBSS, and incubated for 1 hour at room temperature. The cells were then washed gently 3 times with wash buffer containing 0.1% BSA, 20 mM HEPES, 1 mM probenecid in HBSS. The washed cells were placed in an FDSS6000 functional drug screening system (Hamamatsu Photonics, Hamamatsu, Japan) and changes in cellular fluorescence were measured after adding serial dilutions of potential ligands. A panel of about 130 potential ligands was assembled by selecting known ligands of the GPCRs most closely related to P2Y15 GPCR as well as several naturally occurring chemical relatives of the ligands. The library included various bioactive lipids, eicosanoids, peptides, cannabinoids, chemokines, nucleosides, nucleotides and chemically related substances. The ligands were genereally purchased from either Sigma or R&D Systems.
# [2] = test system: nontransfected HEK293 cells; experiment: Cyclic AMP production assay in nontransfected HEK293 cells; type: cell-based, human; conditions: 10 μM forskolin
# Experimental: (§2) The cells were then lysed and the cAMP produced was measured by a cAMP-specific ELISA. Concentrations of cAMP produced were calculated by comparing against cAMP standards measured simultaneously.
# P2Y15 [3] = molecular target: T1, P2Y15; experiment: Receptor binding assay (saturation binding) on P2Y15 stable transfectants; conditions: whole cells, 4° C., 16 h; radiolabelled ligand
# Experimental: 10^5 cells per well in 96-well plates were washed twice for 1 h with DMEM medium. […] After incubating at 4° C. for 16 h, the plates were centrifuged for 10 min at 1500 rpm and then scintillation measured on a TopCount automated scintillation counter. Binding of [^32P]-AMP was carried out under the same conditions except that instead of using SPA beads, at the end of the incubation, cells were washed three times by vacuum filtration and 100 μl scintillation fluid was added to the wells.
# [4] = test system: nontransfected HEK293 cells; experiment: Competitive binding assay on nontransfected HEK293 cells; parameters: species or system human; conditions: for antagonism of ^3H-AMP binding to nontransfected HEK293 cells: 10 μM ^3H-AMP
# Experimental: Competitive binding experiments were carried out as follows: 10^5 cells per well in 96-well plates were washed twice for 1 h with DMEM medium. Then wheatgerm agglutinin SPA beads (Amersham) at 1 mg/well were added, followed 1 h later by 10 μM [^3H]-Adenosine or 10 μM [^3H]-AMP (Amersham), and increasing concentrations of unlabeled ligand in a constant volume of HBS: 10 mM Hepes, 130 mM NaCl, 5 mM KCl, 1 mM MgCl2, 1 mM CaCl2 and 1 g/l glucose (6 μl/well)). After incubating at 4° C. for 16 h, the plates were centrifuged for 10 min at 1500 rpm and then scintillation measured on a TopCount automated scintillation counter. Ki values were determined by non-linear regression using the program Prism (Graph Pad).
# P2Y15 [5] = molecular target: T1, P2Y15; experiment: Competitive binding assay on P2Y15 transfectants; parameters: expressed in transfected cells; conditions: 10 μM ^3H-adenosine; FIG. 3D; read-out: Ki for blocking binding of ^3H-adenosine to transfectants
# Experimental: Competitive binding experiments were carried out as follows: 10^5 cells per well in 96-well plates were washed twice for 1 h with DMEM medium. […] After incubating at 4° C. for 16 h, the plates were centrifuged for 10 min at 1500 rpm and then scintillation measured on a TopCount automated scintillation counter. Ki values were determined by non-linear regression using the program Prism (Graph Pad).
# P2Y15 GPCR = molecular target: T2, P2Y15 GPCR (Homo sapiens, UniProt Q96P68); experiment: Ca2+ flux assay (ligand screening) in stably transfected P2Y15 GPCR-expressing HEK293 cells; type: cell-based; conditions: FIG. 2A, read-out: calcium response EC50
# T2 construct: expressed in transfected cells
# Experimental: as §1
# P2Y15 [6] = molecular target: T1, P2Y15; experiment: Cyclic AMP production assay in P2Y15-HEK293 stable transfectants; type: cell-based; parameters: expressed in transfected cells; conditions: for effect of pertussis toxin pretreatment on cyclic AMP production in response to ligand: pretreatment two hours with 1 μM pertussis toxin; for cyclic AMP response to ligand alone: without forskolin
# Experimental: as §2
# [7] = test system: nontransfected HEK293 cells; experiment: Ca2+ flux assay in nontransfected HEK293 cells (control); type: cell-based, human; conditions: for calcium mobilization in response to nucleotide: both stable transfectants and nontransfected cells (endogenous P2Y1 and P2Y2)
# [8] = 10 M AMP (FIG. 4A legend), read-out: Ki for blocking calcium mobilization induced by AMP
# [9] = Ki for blocking calcium mobilization induced by adenosine, 10 M adenosine (FIG. 4B legend)
smiles,measurement,setting,value
"Cn1c(=O)c2[nH]c(-c3ccccc3)nc2n(C)c1=O [8-phenyltheophylline, 8-Phenyltheophylline]",pKi,P2Y15 [1]; [8],6.60
same,pKi,P2Y15 [1]; [9],6.59
"Nc1ncnc2c1ncn2[C@@H]1O[C@H](COP(=O)(O)O)[C@@H](O)[C@H]1O [AMP, Adenosine 5′-monophosphate]",cyclic AMP generation in nontransfected HEK293 cells,[2],did not respond strongly
same,pKd,P2Y15 [3],4.73
same,antagonism of ^3H-AMP binding to nontransfected HEK293 cells,[4],neither AMP nor adenosine can antagonize
same,blocking ^3H-adenosine binding to nontransfected HEK293 cells,"[4]; 10 μM ^3H-adenosine, FIG. 3D",little effect
same,pKi,P2Y15 [5],4.61
same,pEC50,P2Y15 GPCR,6.04
same,pEC50,"P2Y15 [6]; in the presence of 10 μM forskolin, 30 min, FIG. 2B, read-out: generation of cyclic AMP EC50",6.67
same,effect of pertussis toxin pretreatment on cyclic AMP production in response to ligand,P2Y15 [6],not affected
same,cyclic AMP response to ligand alone,P2Y15 [6],only minor responses barely above the detection limit
"Nc1ncnc2c1ncn2[C@@H]1O[C@H](COP(=O)(O)CP(=O)(O)O)[C@@H](O)[C@H]1O [AMP-CP, Adenosine 5′-(α,β-methylene)diphosphate]",block of calcium mobilization induced by AMP and adenosine,P2Y15 [1],effective in blocking
Nc1ncnc2c1ncn2[C@@H]1O[C@H](COP(=O)(O)OP(=O)(O)OP(=O)(O)O)[C@@H](O)[C@H]1O [ATP],calcium mobilization in response to nucleotide,[7],mobilized calcium
"CC(C)Cn1c(=O)n(C)c(=O)c2[nH]cnc21 [IBMX, 3-isobutyl-1 methylxanthine]",block of calcium mobilization induced by AMP and adenosine,P2Y15 [1],able to block
O=c1ccn([C@@H]2O[C@H](COP(=O)(O)OP(=O)(O)OP(=O)(O)O)[C@@H](O)[C@H]2O)c(=O)[nH]1 [UTP],calcium mobilization in response to nucleotide,[7],mobilized calcium
Nc1ncnc2c1ncn2[C@@H]1O[C@H](CO)[C@@H](O)[C@H]1O [adenosine],calcium mobilization response to adenosine in nontransfected cells,"[7]; nontransfected HEK293, detected only at very high adenosine concentrations",very weak response
same,cyclic AMP generation in nontransfected HEK293 cells,[2],generated cyclic AMP
same,antagonism of ^3H-AMP binding to nontransfected HEK293 cells,[4],neither AMP nor adenosine can antagonize
same,effect of pertussis toxin pretreatment on cyclic AMP production in response to ligand,P2Y15 [6],not affected
same,cyclic AMP response to ligand alone,P2Y15 [6],only minor responses barely above the detection limit
Cn1c(=O)c2c(ncn2C)n(C)c1=O [caffeine],pKi,P2Y15 [1]; [8],5.57
same,pKi,P2Y15 [1]; [9],4.58
Cn1c(=O)c2[nH]cnc2n(C)c1=O [theophylline],block of calcium mobilization induced by AMP and adenosine,P2Y15 [1],able to block
